Test results reported in patent publication US8497276B2, “Substituted indolo-piperidine compounds” (ArQule, Inc., priority 2009, dated 2013).

Experiments:
Kato III = assay: MTS Assay (cell growth inhibition), Kato III; assay type: cell-based; conditions: Kato III cells, 72 hours with test compound; concentration not given
Method: (§1) Cells were maintained at 37° C., 5% CO2 in DMEM media supplemented with 1% fetal bovine serum, penicillin/streptomycin and fungizone (Invitrogen). Cells were seeded into 96-well tissue culture plates at 3000 per well and cultured at 37° C. for 18 hours. Test compounds were dissolved and diluted to 300× in DMSO then diluted 1:40 in DMEM. Cells were incubated with test compounds for 72 hours followed by incubation with tetrazolium compound (3-(4,5-dimethylthiazol-2-yl)-5-(3-carboxymethoxyphenyl)-2-(4-sulfophenyl)-2H-tetrazolium, inner salt; MTS) and the electron coupling reagent, phenazine methosulfate (PMS) for 4 hours. […] The ability of compounds to inhibit cell growth in this assay is correlated with the reduction of dehydrogenase enzyme activity found in metabolically active cells. The measurement of the absorbance of the formazan was assessed using an ENVISION™ (Perkin Elmer) microplate reader at 492 nm. The calculated IC50 value is the concentration of the test compound that causes a 50% decrease in the absorbance.

DLD-1 = assay: MTS Assay (cell growth inhibition), DLD-1; assay type: cell-based; conditions: DLD-1 cells, 72 hours with test compound; concentration not given
Method: as §1

MDA-MB 231 = assay: MTS Assay (cell growth inhibition), MDA-MB 231; assay type: cell-based; conditions: MDA-MB 231 cells, 72 hours with test compound; concentration not given
Method: as §1

NCI-H1299 = assay: MTS Assay (cell growth inhibition), NCI-H1299; assay type: cell-based; conditions: NCI-H1299 cells, 72 hours with test compound; concentration not given
Method: as §1

PACA-2 = assay: MTS Assay (cell growth inhibition), PACA-2; assay type: cell-based; conditions: PACA-2 cells, 72 hours with test compound; concentration not given
Method: as §1

PC-3 = assay: MTS Assay (cell growth inhibition), PC-3; assay type: cell-based; conditions: PC-3 cells, 72 hours with test compound; concentration not given
Method: as §1

Tec kinase = target: T1, Tec kinase (Homo sapiens, UniProt P42680); assay: Tec Kinase Activity Assay; assay type: biochemical; conditions: 75 μM ATP, Pyk-2 substrate; compound concentration not given
T1 sequence (P42680 1-631): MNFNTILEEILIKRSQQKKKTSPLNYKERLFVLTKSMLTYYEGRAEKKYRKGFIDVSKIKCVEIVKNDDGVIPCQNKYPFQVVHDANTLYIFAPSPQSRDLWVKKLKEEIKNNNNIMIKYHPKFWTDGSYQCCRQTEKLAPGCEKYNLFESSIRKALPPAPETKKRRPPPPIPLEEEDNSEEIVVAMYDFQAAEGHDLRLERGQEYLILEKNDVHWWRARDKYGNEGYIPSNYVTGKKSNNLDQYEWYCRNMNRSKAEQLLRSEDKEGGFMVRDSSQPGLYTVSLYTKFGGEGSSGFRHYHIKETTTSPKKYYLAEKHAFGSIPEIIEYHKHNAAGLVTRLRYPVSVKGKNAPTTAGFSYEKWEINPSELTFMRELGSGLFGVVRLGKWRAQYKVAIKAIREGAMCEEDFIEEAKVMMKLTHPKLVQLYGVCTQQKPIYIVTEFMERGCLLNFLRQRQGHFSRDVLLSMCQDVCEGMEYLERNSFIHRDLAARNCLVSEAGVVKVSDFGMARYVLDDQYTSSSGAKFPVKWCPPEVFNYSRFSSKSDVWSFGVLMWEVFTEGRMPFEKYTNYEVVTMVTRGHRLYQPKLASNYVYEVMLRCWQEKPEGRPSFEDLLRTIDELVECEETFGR
Method: The disclosed compounds were assayed for their ability to inhibit the activity of Tec kinase. Nunc Maxisorb plates were coated with streptavidin by overnight incubation with 100 μl per well of 1 μg/ml Streptavidin in DPBS. Prior to the start of the experiment, the plates were washed with TBST (3×200 μl) and blocked for at least 1 hour by adding 150 μl of 5% BSA/TBST. The plates were then washed with TBST (3×200 μl/well) and left dry immediately before the capture step.
The disclosed test compounds and controls (Staurosporine and Sutent) were prepared using the following assay buffer (50 mM Tris-HCl, 0.02 mg/ml BSA, 10 mM MgCl2, 0.1 mM Na3VO4, 1 mM EGTA, 75 μM ATP, 0.01% NP-40, 2 mM DTT in 10% glycerol/water) at 3× desired final concentration. 20 μl of the test compounds (or control) and 20 μl TEC (0.25 ng/μl) were rapidly added to a reaction plate. The plate was incubated for 30 minutes. 20 μl of Pyk-2 (0.5 ng/μl) was then added to the reaction plate. The plate was incubated at room temperature for two hours.
50 μl was transferred from the reaction plate to the streptavidin coated plate. The capture plate was incubated at room temperature for 30 minutes then washed with TBST 6 times. 100 μl/well of Cell Signaling anti-phospho tyrosine was added to the capture plate at a dilution of 1:3000 in 2% BSA/TBST. The plate was incubated for one hour at room temperature then washed with TBST 6 times. 100 μl/well of alkaline phosphatase tagged goat anti-mouse antibody was added to the capture plate at a dilution of 1:4000 in 2% BSA/TBST. The plate was incubated for one hour at room temperature then washed with TBST 6 times.
The fluorescent readout was initiated by the addition of 100 μl/well of Attophos reagent (6 mg/10 ml) and the reading was done on the Perkin Elmer Envision system.

## CC(C)c1ccc(C2c3[nH]c4ccccc4c3CCN2c2ncnc3[nH]ncc23)cc1 (stereo not drawn) [Compound 21, 1-(4-isopropylphenyl)-2-(1H-pyrazolo[3,4-d]pyrimidin-4-yl)-2,3,4,9-tetrahydro-1H-beta-carboline]
Kato III
  MTS cell kill data (% inhibition) Kato III: A (A = 80-100% inhibition)
DLD-1
  MTS cell kill data (% inhibition) DLD-1: A (A = 80-100% inhibition)
MDA-MB 231
  MTS cell kill data (% inhibition) MDA-MB 231: A (A = 80-100% inhibition)
NCI-H1299
  MTS cell kill data (% inhibition) NCI-H1299: A (A = 80-100% inhibition)
PACA-2
  MTS cell kill data (% inhibition) PACA-2: A (A = 80-100% inhibition)
PC-3
  MTS cell kill data (% inhibition) PC-3: B (B = 50-79% inhibition)
Tec kinase
  Biochemical IC50 (% inhibition) Tec: B (B = 50-79% inhibition)

## COc1ccc(C2c3[nH]c4ccccc4c3CCN2c2ncnc3[nH]ccc23)cc1OC (stereo not drawn) [Compound 22, 1-(3,4-dimethoxyphenyl)-2-(7H-pyrrolo[2,3-d]pyrimidin-4-yl)-2,3,4,9-tetrahydro-1H-beta-carboline]
Kato III
  MTS cell kill data (% inhibition) Kato III: B (B = 50-79% inhibition)
DLD-1
  MTS cell kill data (% inhibition) DLD-1: B (B = 50-79% inhibition)
MDA-MB 231
  MTS cell kill data (% inhibition) MDA-MB 231: C (C = <50% inhibition)
NCI-H1299
  MTS cell kill data (% inhibition) NCI-H1299: B (B = 50-79% inhibition)
PACA-2
  MTS cell kill data (% inhibition) PACA-2: B (B = 50-79% inhibition)
PC-3
  MTS cell kill data (% inhibition) PC-3: C (C = <50% inhibition)
Tec kinase
  Biochemical IC50 (% inhibition) Tec: C (C = <50% inhibition)

## COc1ccc(C2c3[nH]c4ccccc4c3CCN2c2ncnc3[nH]cnc23)cc1OC (stereo not drawn) [Compound 23, 1-(3,4-dimethoxyphenyl)-2-(9H-purin-6-yl)-2,3,4,9-tetrahydro-1H-beta-carboline]
Kato III
  MTS cell kill data (% inhibition) Kato III: B (B = 50-79% inhibition)
DLD-1
  MTS cell kill data (% inhibition) DLD-1: B (B = 50-79% inhibition)
MDA-MB 231
  MTS cell kill data (% inhibition) MDA-MB 231: C (C = <50% inhibition)
NCI-H1299
  MTS cell kill data (% inhibition) NCI-H1299: B (B = 50-79% inhibition)
PACA-2
  MTS cell kill data (% inhibition) PACA-2: B (B = 50-79% inhibition)
PC-3
  MTS cell kill data (% inhibition) PC-3: C (C = <50% inhibition)
Tec kinase
  Biochemical IC50 (% inhibition) Tec: C (C = <50% inhibition)

## c1ccc(C2c3[nH]c4ccccc4c3CCN2c2ncnc3[nH]ccc23)cc1 (stereo not drawn) [Compound 24, 1-phenyl-2-(7H-pyrrolo[2,3-d]pyrimidin-4-yl)-2,3,4,9-tetrahydro-1H-beta-carboline]
Kato III
  MTS cell kill data (% inhibition) Kato III: B (B = 50-79% inhibition)
DLD-1
  MTS cell kill data (% inhibition) DLD-1: B (B = 50-79% inhibition)
MDA-MB 231
  MTS cell kill data (% inhibition) MDA-MB 231: C (C = <50% inhibition)
NCI-H1299
  MTS cell kill data (% inhibition) NCI-H1299: B (B = 50-79% inhibition)
PACA-2
  MTS cell kill data (% inhibition) PACA-2: B (B = 50-79% inhibition)
PC-3
  MTS cell kill data (% inhibition) PC-3: C (C = <50% inhibition)
Tec kinase
  Biochemical IC50 (% inhibition) Tec: B (B = 50-79% inhibition)

## c1ccc(C2c3[nH]c4ccccc4c3CCN2c2ncnc3[nH]cnc23)cc1 (stereo not drawn) [Compound 25, 1-phenyl-2-(9H-purin-6-yl)-2,3,4,9-tetrahydro-1H-beta-carboline]
Kato III
  MTS cell kill data (% inhibition) Kato III: B (B = 50-79% inhibition)
DLD-1
  MTS cell kill data (% inhibition) DLD-1: B (B = 50-79% inhibition)
MDA-MB 231
  MTS cell kill data (% inhibition) MDA-MB 231: C (C = <50% inhibition)
NCI-H1299
  MTS cell kill data (% inhibition) NCI-H1299: B (B = 50-79% inhibition)
PACA-2
  MTS cell kill data (% inhibition) PACA-2: B (B = 50-79% inhibition)
PC-3
  MTS cell kill data (% inhibition) PC-3: C (C = <50% inhibition)
Tec kinase
  Biochemical IC50 (% inhibition) Tec: C (C = <50% inhibition)

## c1ccc(C2c3[nH]c4ccccc4c3CCN2c2ncnc3[nH]ncc23)cc1 (stereo not drawn) [Compound 26, 1-phenyl-2-(1H-pyrazolo[3,4-d]pyrimidin-4-yl)-2,3,4,9-tetrahydro-1H-beta-carboline]
Kato III
  MTS cell kill data (% inhibition) Kato III: B (B = 50-79% inhibition)
DLD-1
  MTS cell kill data (% inhibition) DLD-1: B (B = 50-79% inhibition)
MDA-MB 231
  MTS cell kill data (% inhibition) MDA-MB 231: C (C = <50% inhibition)
NCI-H1299
  MTS cell kill data (% inhibition) NCI-H1299: B (B = 50-79% inhibition)
PACA-2
  MTS cell kill data (% inhibition) PACA-2: B (B = 50-79% inhibition)
PC-3
  MTS cell kill data (% inhibition) PC-3: C (C = <50% inhibition)
Tec kinase
  Biochemical IC50 (% inhibition) Tec: C (C = <50% inhibition)

## c1ccc(CCC2c3[nH]c4ccccc4c3CCN2c2ncnc3[nH]cnc23)cc1 (stereo not drawn) [Compound 27, 1-(2-phenylethyl)-2-(9H-purin-6-yl)-2,3,4,9-tetrahydro-1H-beta-carboline]
Kato III
  MTS cell kill data (% inhibition) Kato III: A (A = 80-100% inhibition)
DLD-1
  MTS cell kill data (% inhibition) DLD-1: A (A = 80-100% inhibition)
MDA-MB 231
  MTS cell kill data (% inhibition) MDA-MB 231: A (A = 80-100% inhibition)
NCI-H1299
  MTS cell kill data (% inhibition) NCI-H1299: A (A = 80-100% inhibition)
PACA-2
  MTS cell kill data (% inhibition) PACA-2: A (A = 80-100% inhibition)
PC-3
  MTS cell kill data (% inhibition) PC-3: A (A = 80-100% inhibition)
Tec kinase
  Biochemical IC50 (% inhibition) Tec: B (B = 50-79% inhibition)

## Nc1nc(N2CCc3c([nH]c4ccccc34)C2CCc2ccccc2)c2nc[nH]c2n1 (stereo not drawn) [Compound 28, 6-[1-(2-phenylethyl)-1,3,4,9-tetrahydro-2H-beta-carbolin-2-yl]-9H-purin-2-amine]
Kato III
  MTS cell kill data (% inhibition) Kato III: C (C = <50% inhibition)
DLD-1
  MTS cell kill data (% inhibition) DLD-1: B (B = 50-79% inhibition)
MDA-MB 231
  MTS cell kill data (% inhibition) MDA-MB 231: C (C = <50% inhibition)
NCI-H1299
  MTS cell kill data (% inhibition) NCI-H1299: B (B = 50-79% inhibition)
PACA-2
  MTS cell kill data (% inhibition) PACA-2: C (C = <50% inhibition)
PC-3
  MTS cell kill data (% inhibition) PC-3: C (C = <50% inhibition)
Tec kinase
  Biochemical IC50 (% inhibition) Tec: C (C = <50% inhibition)

## COc1ccc(C2c3[nH]c4ccccc4c3CCN2c2ncnc3[nH]cnc23)cc1 (stereo not drawn) [Compound 29, 1-(4-methoxyphenyl)-2-(9H-purin-6-yl)-2,3,4,9-tetrahydro-1H-beta-carboline]
Kato III
  MTS cell kill data (% inhibition) Kato III: B (B = 50-79% inhibition)
DLD-1
  MTS cell kill data (% inhibition) DLD-1: B (B = 50-79% inhibition)
MDA-MB 231
  MTS cell kill data (% inhibition) MDA-MB 231: C (C = <50% inhibition)
NCI-H1299
  MTS cell kill data (% inhibition) NCI-H1299: B (B = 50-79% inhibition)
PACA-2
  MTS cell kill data (% inhibition) PACA-2: B (B = 50-79% inhibition)
PC-3
  MTS cell kill data (% inhibition) PC-3: C (C = <50% inhibition)
Tec kinase
  Biochemical IC50 (% inhibition) Tec: C (C = <50% inhibition)

## COc1ccc(C2c3[nH]c4ccccc4c3CCN2c2ncnc3[nH]ccc23)cc1 (stereo not drawn) [Compound 30, 1-(4-methoxyphenyl)-2-(7H-pyrrolo[2,3-d]pyrimidin-4-yl)-2,3,4,9-tetrahydro-1H-beta-carboline]
Kato III
  MTS cell kill data (% inhibition) Kato III: A (A = 80-100% inhibition)
DLD-1
  MTS cell kill data (% inhibition) DLD-1: B (B = 50-79% inhibition)
MDA-MB 231
  MTS cell kill data (% inhibition) MDA-MB 231: A (A = 80-100% inhibition)
NCI-H1299
  MTS cell kill data (% inhibition) NCI-H1299: B (B = 50-79% inhibition)
PACA-2
  MTS cell kill data (% inhibition) PACA-2: B (B = 50-79% inhibition)
PC-3
  MTS cell kill data (% inhibition) PC-3: A (A = 80-100% inhibition)
Tec kinase
  Biochemical IC50 (% inhibition) Tec: C (C = <50% inhibition)
